Patent publication US10799595B2, “Pyrrolobenzodiazepine conjugates” (priority 2016, dated 2020)

How the values were obtained:
MDA-MB-361 = assay: In vitro testing of compound 10, CellTiter-Glo viability, +/- β-glucuronidase, 144 hour assay; format: cell-based; conditions: Homo sapiens, MDA-MB-361, 144 h
Experimental: DU145 (2000/well, 72 hour assay) and MDA-MB-361 (5000/well, 144 hour assay) cells were plated in culture medium to tissue culture-treated 96-well plates at a volume of 80 μL per well and allowed to adhere overnight. For warhead dilutions, first a 60× concentration of each dose to be tested was prepared by diluting the test articles in DMSO. The 60× dilutions of warhead were then further diluted to a 5× concentration in either cell culture medium alone or cell culture medium containing 5× β-glucuronidase enzyme (Sigma Cat # G0799-25KU). 20 μL of cell culture medium containing test article+/−enzyme was added to cells in triplicate wells, and the final dose curve ranged from 6.4 nM to 61 pM in a stepwise 1:4 serial dilution series. DMSO alone diluted to the culture medium was used as the controls. […] 100 μL of CTG reagent was added to each well, and plates were incubated for 10 minutes at room temperature with gentle shaking, absorbance of each sample was read at 560 nm using an EnVision luminometer (Perkin Elmer). The percent cell viability was calculated by the following formula: (average luminescence of treated samples/average luminescence of control samples)×100.
(§1) IC50 values were determined using logistic non-linear regression analysis with GraphPad Prism software.

DU145 = assay: In vitro testing of compound 10, CellTiter-Glo viability, +/- β-glucuronidase, 72 hour assay; format: cell-based; conditions: Homo sapiens, DU-145, 72 h
Experimental: DU145 (2000/well, 72 hour assay) and MDA-MB-361 (5000/well, 144 hour assay) cells were plated in culture medium to tissue culture-treated 96-well plates at a volume of 80 μL per well and allowed to adhere overnight. For warhead dilutions, first a 60× concentration of each dose to be tested was prepared by diluting the test articles in DMSO. The 60× dilutions of warhead were then further diluted to a 5× concentration in either cell culture medium alone or cell culture medium containing 5× β-glucuronidase enzyme (Sigma Cat # G0799-25KU). […] DMSO alone diluted to the culture medium was used as the controls. The treated cells were cultured at 37° C./5% CO2 for 72 to 144 hours (depending on established growth kinetics of each particular cell line). At the end of the assay, CellTiter-Glo® (CTG) Luminescent Viability Assay (Promega) was used to determine relative cytotoxicity. 100 μL of CTG reagent was added to each well, and plates were incubated for 10 minutes at room temperature with gentle shaking, absorbance of each sample was read at 560 nm using an EnVision luminometer (Perkin Elmer). The percent cell viability was calculated by the following formula: (average luminescence of treated samples/average luminescence of control samples)×100.
as §1

human tumour cell lines = conditions: cited from earlier work; for activity against a range of human tumour cell lines: quoted from REF 2014 impact study
[1] = test system: human tumour xenograft models; conditions: quoted from REF 2014 impact study; cited from earlier work

C=C1C[C@H]2[C@H](O)N(C(=O)OCc3ccc(NC(=O)[C@H](C)NC(=O)[C@@H](NC(=O)CCOCCOCCOCCOCCOCCOCCOCCOCCNC(=O)CCN4C(=O)C=CC4=O)C(C)C)cc3)c3cc(OCCCOc4cc5c(cc4OC)C(=O)N4CC(=C)C[C@H]4[C@H](O)N5C(=O)OCc4ccc(O[C@@H]5O[C@H](C(=O)O)[C@@H](O)[C@H](O)[C@H]5O)c([N+](=O)[O-])c4)c(OC)cc3C(=O)N2C1 [Compound 10]
IC50 (MDA-MB-361; No glucuronidase): 778 nM
IC50 (MDA-MB-361; With glucuronidase): 32 nM
IC50 (DU145; No glucuronidase): 6840 nM
IC50 (DU145; With glucuronidase): 201 nM

C=C1C[C@H]2C=Nc3cc(OCCCOc4cc5c(cc4OC)C(=O)N4CC(=C)C[C@H]4C=N5)c(OC)cc3C(=O)N2C1 [SG2000]
times less cytotoxic than SG2057 (human tumour cell lines; see Hartley et al 2012): at least 10 times

C=C1C[C@H]2C=Nc3cc(OCCCCCOc4cc5c(cc4OC)C(=O)N4CC(=C)C[C@H]4C=N5)c(OC)cc3C(=O)N2C1 [SG2057]
activity in human tumour xenograft models [1]: curative activity
activity against a range of human tumour cell lines (human tumour cell lines): picomolar/sub-picomolar activity

COc1ccc(C2=CN3C(=O)c4cc(OC)c(OCCCOc5cc6c(cc5OC)C(=O)N5C=C(c7ccc(OC)cc7)C[C@H]5C=N6)cc4N=C[C@@H]3C2)cc1 [SG2202]
activity in human tumour xenograft models [1]: curative activity
activity against a range of human tumour cell lines (human tumour cell lines): picomolar/sub-picomolar activity
